Assay results reported in article PMC10675077, “Antimicrobial Properties of New Polyamines Conjugated with Oxygen-Containing Aromatic Functional Groups” (Molecules, 2023).
Values after ≈ are worked out from the molar mass of the structure shown. Like-named read-outs stand apart in the source and are kept apart here.

How the values were obtained:
[1] = Potentiometric titrations in water (protonation constants); format: physicochemical; details: for log β (cumulative protonation constant): calculated as log β = ∑j log KHjL; for n, average number of positive charges at pH 7.4: calculated from protonation constants
Protocol: The potentiometric titrations were carried out at 298.1 ± 0.1 K using NaCl 0.15 M as a supporting electrolyte. The experimental procedure (burette, potentiometer, cell, stirrer, microcomputer, etc.) has been fully described elsewhere. The acquisition of the EMF data was performed with the computer program PASAT [50]. The reference electrode was a Ag/AgCl electrode in a saturated KCl solution. The glass electrode was calibrated as a hydrogen-ion concentration probe via the titration of previously standardised amounts of HCl with CO2-free NaOH solutions and the equivalent point determined using the Gran method, which provides the standard potential, E^θ′, and the ionic product of water (pKw = 13.73(1)).
The computer program […] was used to calculate the protonation constants. The pH range investigated was 2.5–11.0, and the concentration of the ligands ranged from 5 × 10^−4 to 5 × 10^−[…]. The different titration curves for each system (at least two) were treated either as a single set or as separated curves without significant variations in the values of the stability constants. Finally, the sets of data were merged and treated simultaneously to give the final stability constants.

[2] = Cytotoxicity, flow cytometry viability assay with propidium iodide; format: cell-based, human; details: human, Jurkat cells (human lymphocytic leukaemia, ATCC TIB-152), 24 h treatment, average of three experiments, read-out: IC50, cytotoxicity on the human Jurkat cell line
Protocol: The cytotoxicity of the compounds was assessed via flow cytometry with a viability assay using propidium iodide (PI), a DNA-binding fluorescent probe not permeant to live cells, which is commonly used to detect dead cells in a population. The human lymphocytic leukaemia Jurkat cell line (ATCC TIB-152) was obtained from the American Type Cell Culture (Sigma-Aldrich) and grown in suspension in an RPMI 1640 medium (Thermo Fisher Scientific, Waltham, MA, USA) supplemented with L-glutamine, antibiotics, and 10% heat-inactivated foetal calf serum (FCS, Thermo Fisher Scientific, Waltham, MA, USA). For the viability assay, cells were seeded in plastic 96-well plates at […] in an RPMI 1640 medium supplemented with 5% FCS. The cells were treated for 24 h with a range of concentrations of the test compounds or with the same volume of phosphate buffer (PBS) in control wells. After incubation, cell suspensions were washed, resuspended in 400 μL fresh medium, and incubated for 5 min at room temperature in the dark with 3.75 μM PI (Sigma-Aldrich). Cell viability was determined via flow cytometry using a Gallios flow cytometer (Beckman Coulter). PI fluorescence was excited with an argon-ion laser at 488 nm and collected through a 620/630 nm band-pass emission. Cellular events were discriminated from debris using forward scatter (FS) and side scatter (SS) signals. Cell aggregates were excluded from analysis based on FS-integral and FS-peak. The gates applied for population discrimination were set manually based on control samples. For each sample, 10,000 events were collected. For further analysis, the cytometric data were exported to Kaluza 2.1 software (Beckman Coulter, Brea, CA, USA). Dead cells were identified and quantified as PI-positive events. The cytotoxic potency of test compounds was quantified using their IC50 values, i.e., the compound concentration at which cell viability is inhibited by 50%, as calculated via curve fitting and determined with the correlation coefficient (R2) using GraphPad Prism 9.0 software. Experiments were carried out in triplicate.

[3] = system: Saccharomyces cerevisiae BY4741/YEplac195; assay: microbe, parasite or virus in culture; format: cell-based; details: Saccharomyces cerevisiae, 24 h, read-out: MIC, Yeast, BY4741/ YEplac195
Excerpt: (§1) The microorganisms used for the susceptibility tests were the bacteria Escherichia coli JM101 and Staphylococcus aureus BHI, and the yeast Saccharomyces cerevisiae strains BY4741 (MAT a his3Δ1 leu2Δ0 met15Δ0 ura3Δ0 (EUROSCARF)) carrying YEplac195 (from EUROSCARF) or YEPlac195-PDR5 (provided by Ayse Banu Demir, Izmir University of Economics, Turkey) plasmids.
(§2) Bacterial strains were usually maintained and grown in an LB medium (0.5% (w/v) yeast extract, 1% (w/v) bactotryptone, and 1% (w/v) NaCl) at 37 °C. For MIC (minimal inhibitory concentration) and MMC (minimal microbicidal concentration) assays, and for the determination of synergies, overnight growth was carried out in 2% (w/v) bactopeptone (BP), and then the cultures were diluted and incubated for several hours in 2% (w/v) BP for ensuring logarithmic growth. Yeast strains were grown in an SC-ura medium (0.17% (w/v) yeast nitrogen base without amino acids and ammonium sulphate, 0.2% (w/v) drop-out without uracil, 0.5% (w/v) (NH4)2SO4, and 2% (w/v) glucose) at 30 °C. Liquid cultures were incubated with shaking (200 rpm). Solid media also contained 2% (w/v) agar.
(§3) The determination of the MIC for yeast strains was carried out following a similar procedure to that of the polyamines and antifungal reference agents: Serial dilutions of each one in phosphate buffer (20 mM, pH 7.4, 0.5 mL) were prepared and mixed with a suspension of yeast cells (OD600 0.04 in SC-ura 2X (VWR, Atlanta, GA, USA), 0.5 mL). […] Experiments were carried out at least three times in all cases.

[4] = system: Saccharomyces cerevisiae BY4741/YEplac195-PDR5; assay: microbe, parasite or virus in culture; format: cell-based; details: Saccharomyces cerevisiae, 24 h, read-out: MIC, Yeast, BY4741/ PDR5
Excerpt: as §1, §2, §3

[5] = system: Yeast (S. cerevisiae strains); assay: MIC, yeast (strain not specified); format: cell-based, Saccharomyces cerevisiae; details: Saccharomyces cerevisiae; yeast strain not specified (Tables 5 and 10); read-out: MIC Yeast
Protocol: as §3

[6] = system: Staphylococcus aureus BHI; assay: MIC, microdilution in culture medium, S. aureus; format: cell-based; details: Staphylococcus aureus, 20 h, read-out: MIC, Bacteria, S. aureus BHI
Excerpt: as §1, §2
(§4) For the analysis of the antimicrobial activity, the strategies and indications of Cushnie et al. were considered. The standardised method of microdilution in a culture medium was followed to determine the MIC [55]. In bacterial strains, serial dilutions of the compounds to be tested and the control antibiotics were prepared in phosphate buffer (20 mM, pH 7.4, 0.5 mL) and were mixed with a suspension of bacterial cells in a logarithmic growth phase (in 1% BP, 0.5 mL). The final OD600 of the whole solutions were 0.004 and 0.008 for E. coli and S. aureus cultures, respectively. After 20 h of incubation at 37 °C with shaking, the MIC was determined as the lowest concentration of each compound in which no visible bacterial growth was observed.

[7] = system: Escherichia coli JM101; assay: MIC, microdilution in culture medium, E. coli; format: cell-based; details: Escherichia coli, read-out: MIC, Bacteria, E. coli JM101
Excerpt: as §1, §2, §4

[8] = system: S. aureus BHI; assay: Minimal bactericidal concentration, S. aureus; format: cell-based, Staphylococcus aureus; details: Staphylococcus aureus; overnight incubation, plating on LB
Protocol: (§5) Once the MIC was known, the samples were prepared as described in the previous section with polyamine concentrations corresponding to the MIC and half, double, and four times its value. After overnight incubation with the microorganisms, 30 μL of a ten-fold dilution of each one was spread in LB (in the case of bacterial strains) or SC-ura (for yeast strains) plates. They were incubated for 20 h at 37 °C (bacteria) or 48 h at 30 °C (yeasts), and the level of growth was determined. […] Experiments were carried out at least three times.

[9] = system: E. coli JM101; assay: Minimal bactericidal concentration, E. coli; format: cell-based, Escherichia coli; details: Escherichia coli, JM101; overnight incubation, plating on LB; bacteriostatic if growth at 4 times the MIC
Protocol: as §5

[10] = 298 K, 0.15 mol/dm^3 NaCl, error in last figure in parentheses
[11] = 30 °C, average of at least three experiments
[12] = 37 °C, average of at least three experiments
[13] = JM101, 20 h, 37 °C, average of at least three experiments

Compound | MIC [3, 11] | MIC [4] | MIC [6, 12] | MIC [7, 13] | also measured
c1cc2c(cc1CNCCCNCCCCNCCCNCc1ccc3c(c1)OCO3)OCO2 [Compound 2a, N^1,N^1′-(butane-1,4-diyl)bis(N^3-(benzo[d][1,3]dioxol-5-ylmethyl)propane-1,3-diamine)] | 250 µg/mL | 250 µg/mL | 50 µg/mL | 10 µg/mL | Stepwise protonation constant (log K), H2L + H ⇄ H3L [1, 10]: 8.245 (7); Stepwise protonation constant (log K), H3L + H ⇄ H4L [1, 10]: 7.41 (1); Stepwise protonation constant (log K), L + H ⇄ HL [1, 10]: 10.81 (3); Stepwise protonation constant (log K), LH + H ⇄ H2L [1, 10]: 9.481 (8); log β (cumulative protonation constant) ([1]; 298 K, 0.15 mol/dm^3 NaCl): 35.94; n, average number of positive charges at pH 7.4 [1]: 3.4; IC50 at 24 h [2]: 8.8 µg/mL (≈ 18.7 µM); MIC [5]: 250 µg/mL (≈ 531 µM); MBC [8]: 100 µg/mL (≈ 212 µM); MBC [9]: 20 µg/mL (≈ 42.5 µM)
C[C@@H]1C[C@@H]([C@H](O)CC2CC(=O)NC(=O)C2)C(=O)[C@@H](C)C1 [Cycloheximide, reference compound] | – | 0.5 µg/mL | – | – | MIC [3]: 0.5 µg/mL
c1cc2c(cc1CNCCN(CCNCc1ccc3c(c1)OCO3)CCNCc1ccc3c(c1)OCO3)OCO2 [Compound 3a, N^1-(benzo[d][1,3]dioxol-5-ylmethyl)-N^2,N^2-bis(2-((benzo[d][1,3]dioxol-5-ylmethyl)amino)ethyl)ethane-1,2-diamine] | > 400 µg/mL | > 400 µg/mL | 15 µg/mL | 25 µg/mL | Stepwise protonation constant (log K), H2L + H ⇄ H3L [1, 10]: 6.93 (3); Stepwise protonation constant (log K), L + H ⇄ HL [1, 10]: 9.12 (2); Stepwise protonation constant (log K), LH + H ⇄ H2L [1, 10]: 8.35 (3); n, average number of positive charges at pH 7.4 [1]: 2.1; IC50 at 24 h [2]: 1.86 µg/mL (≈ 3.39 µM); MIC [5]: > 400 µg/mL; MBC [8]: 30 µg/mL (≈ 54.7 µM); MBC [9]: 50 µg/mL (≈ 91.1 µM)
CNC(C)C1CCC(N)C(OC2C(N)CC(N)C(OC3OCC(C)(O)C(NC)C3O)C2O)O1 (stereo not shown) [Gentamicin, reference compound] | – | – | 0.04 µg/mL | 0.02 µg/mL | –
NCCN(CCN)CCN [Compound 3b, reference compound] | > 400 µg/mL | > 400 µg/mL | 400 µg/mL | 250 µg/mL | –
O=C(O)c1cn(C2CC2)c2cc(N3CCNCC3)c(F)cc2c1=O [Ciprofloxacin, reference compound] | – | – | 0.1 µg/mL | 0.04 µg/mL | –
c1ccc2c(c1)OCO2 [1,3-Benzodioxole, reference compound] | – | > 500 µg/mL | – | – | MIC [3]: > 500 µg/mL; MIC [6]: > 500 µg/mL; MIC ([7]; JM101, 20 h): > 500 µg/mL
NCCCCNCCCN [Compound 1b, spermidine, reference compound] | > 400 µg/mL | > 400 µg/mL | > 400 µg/mL | 400 µg/mL | –
c1cc2c(cc1CNCCCCNCCCNCc1ccc3c(c1)OCO3)OCO2 [Compound 1a, N^1-(benzo[d][1,3]dioxol-5-ylmethyl)-N^4-(3-((benzo[d][1,3]dioxol-5-ylmethyl)amino)propyl)butane-1,4-diamine] | > 400 µg/mL | > 400 µg/mL | 150 µg/mL | 50 µg/mL | Stepwise protonation constant (log K), H2L + H ⇄ H3L [1, 10]: 7.699 (2); Stepwise protonation constant (log K), L + H ⇄ HL [1, 10]: 10.433 (2); Stepwise protonation constant (log K), LH + H ⇄ H2L [1, 10]: 8.964 (2); log β (cumulative protonation constant) ([1]; 298 K, 0.15 mol/dm^3 NaCl): 27.09; n, average number of positive charges at pH 7.4 [1]: 2.7; IC50 at 24 h [2]: 11.4 µg/mL (≈ 27.6 µM); MIC [5]: > 400 µg/mL; MBC [9]: 100 µg/mL (≈ 242 µM)
NCCCNCCN(CCNCCCN)CCNCCCN [Compound 4b] | > 400 µg/mL | > 400 µg/mL | 250 µg/mL | 400 µg/mL | –
NCCCNCCCCNCCCN [Compound 2b, spermine, reference compound] | – | > 400 µg/mL | 400 µg/mL | 100 µg/mL | MIC [3]: > 400 µg/mL
